In US9296748B2, “Pyridinones” (Boehringer Ingelheim International GmbH, priority 2013, dated 2016):

These molecules were tested against BRD4-BD1 (Homo sapiens (Human), UniProt O60885) (assay: BRD4-H4 Tetraacetylated Peptide Inhibition AlphaScreen). Settings: GST-BRD4-BD1 (aa 44-168), biotinylated Acetyl-Histone H4 peptide.
Format: binding
Procedure: Compounds are diluted in serial dilution 1:5 in assay buffer from 10 mM stock in DMSO (100 μM start concentration) in white OptiPlate-384 (PerkinElmer). […] Subsequently, 6 μl of premixed AlphaLISA Glutathione Acceptor Beads and AlphaScreen Streptavidin Donor Beads from PerkinElmer (in assay buffer at a concentration of 10 μg/ml each) are added and the samples are incubated for 30 min at RT in the dark (shaking 300 rpm). Afterwards, the signal is measured in a PerkinElmer Envision HTS Multilabel Reader using the AlphaScreen protocol from PerkinElmer. […] Negative control values are entered as low basis value when using the software GraphPad Prism for calculations. Furthermore, a positive control (probe molecule JQ1+ with protein/peptide mix) is pipetted. Determination of IC50 values are carried out using GraphPad Prism 3.03 software (or updates thereof).
`Cc1cc(-c2nc3cc(N)cnc3n2Cc2ccccc2)cn(C)c1=O` [IV-12] gave an IC50 of 38 nM. `Cc1cc(-c2nc3cc(Cl)c(Cl)cc3n2Cc2ccc(Cl)c(Cl)c2)cn(C)c1=O` [IV-13] was tested, and the IC50 was 4810 nM. In the case of `Cc1cc(-c2nc3cnc(N4CCOCC4)nc3n2Cc2ccccc2)cn(C)c1=O` [IV-14], the IC50 is reported as 50 nM. `Cc1cc(-c2nc3cnc(N4CCOCC4)nc3n2[C@@H](C)c2ccccc2)cn(C)c1=O` [IV-15] showed an IC50 of 17 nM. `CNc1cc(-c2nc3ccccc3n2Cc2ccccc2)cn(C)c1=O` [VI-1, 5-(1-benzyl-1H-1,3-benzodiazol-2-yl)-1-methyl-3-(methylamino)-1,2-dihydropyridin-2-one] gave an IC50 of 136 nM.
